From patent publication US9975861B2, “Dual inhibitor compounds for use in the treatment of neurodegenerative disorders and alzheimer's disease” (FONDAZIONE ISTITUTO ITALIANO DI TECNOLOGIA, priority 2014, dated 2018)

Legend:
[1] = tested on: inducible nitric oxide synthase (iNOS); test: Western blot analysis of iNOS (M1 marker) in LPS-stimulated glial cells; assay type: cell-based; details: LPS 100 ng/mL, 24 hours co-treatment, 0, 5, 10 and 20 μM; dose-dependent; primary rat glial cells (FIGS. 5a, b)
Procedure: (§1) Mixed glial cell cultures were prepared from cerebral cortex of newborn Wistar rats (Rattus norvegicus), as previously described [Monti, B.; D'Alessandro, C.; Farini, V.; Bolognesi, A.; Polazzi, E.; Contestabile, A.; Stirpe, F.; Battelli, M. G. In vitro and in vivo toxicity of type 2 ribosome-inactivating proteins lanceolin and stenodactylin on glial and neuronal cells. Neurotoxicology 2007, 28, 637-644]. Briefly, brain tissue was cleaned from meninges, trypsinized for 15 minutes at 37° C. and, after mechanical dissociation, the cell suspension was washed and plated on poly-L-lysine (Sigma-Aldrich, St. Louis, Mo., USA, 10 μg/mL) coated flasks (75 cm^2). Mixed glial cells were cultured for 10-13 days in Basal Medium Eagle (BME, Life technologies Ltd, Paisley, UK) supplemented with 100 mL/L heat-inactivated FBS (Life technologies), 2 mmol/L glutamine (Sigma-Aldrich) and 100 μmol/L gentamicin sulfate (Sigma-Aldrich).
Microglial cells were harvested from mixed glial cell cultures by mechanical shaking, resuspended in fresh medium without serum and plated on uncoated 35 mm Ø dishes at a density of 1.5×10^6 cells/1.5 mL medium/well for western blot analysis or on 96 wells at 1×10^5 cells/0.2 mL medium/well for MTT assay. Cells were allowed to adhere for 30 minutes and then washed to remove non-adhering cells. […]

[2] = tested on: glial and neuronal cells; test: MTT assay, viability of brain cells in primary cultures; assay type: cell-based, rat; details: 0, 10, 20 and 50 μM for 24 hours; up to 50 μM; microglia, astrocytes, cerebellar granular neurons (FIGS. 4a-4c)
Procedure: as §1, with “(Sigma-Aldrich). […]” for “(Sigma-Aldrich).”
Neurotoxicology 2007, 28, 637-44]. […] Following a 20 minutes incubation for CGNs and 2 hours for glial cells at 37° C. in the dark, the MTT precipitate was dissolved in 0.1 M Tris-HCl buffer containing 5% Triton X-100 (all from Sigma-Aldrich) and absorbance was read at 570 nm in a multiplate spectophotometric reader (Bio-Rad).

SMILES | LPS-induced iNOS induction [1] | toxicity in glial and neuronal cells (MTT viability) [2]
CCNC1=NC(c2ccc(F)cc2)NC(=O)N1 (racemic) [Example 3, 6-(ethylamino)-4-(4-fluorophenyl)-3,4-dihydro-1,3,5-triazin-2(1H)-one] | reduced | did not display any toxicity
CCCNC1=NC(c2ccc(F)cc2)NC(=O)N1 (stereo not shown) [Example 6, 4-(4-fluorophenyl)-6-(propylamino)-3,4-dihydro-1,3,5-triazin-2(1H)-one] | reduced | did not display any toxicity
